Experimental data from PubChem BioAssay (NCI).
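Each compound was tested at five concentrations against cells in 96-well plates for 48 hours. GI50: concentration for 50% inhibition of growth. TGI is the concentration that stops growth completely.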

Columns and labels:
Assay in all cases: NCI-60 cell line screen, 48 h
A549 NSCLC = tested on: A549 NSCLC
BT-549 breast = tested on: BT-549 breast
CAKI-1 renal = tested on: CAKI-1 renal
HOP-62 NSCLC = tested on: HOP-62 NSCLC
IGROV1 ovarian = tested on: IGROV1 ovarian
PC-3 prostate = tested on: PC-3 prostate
SF-268 CNS = tested on: SF-268 CNS
SF-539 CNS = tested on: SF-539 CNS
SK-OV-3 ovarian = tested on: SK-OV-3 ovarian
MALME-3M melanoma = tested on: MALME-3M melanoma

Compound	GI50 (A549 NSCLC) [µM]	TGI (A549 NSCLC) [µM]	GI50 (BT-549 breast) [µM]	TGI (BT-549 breast) [µM]	GI50 (CAKI-1 renal) [µM]	TGI (CAKI-1 renal) [µM]	GI50 (HOP-62 NSCLC) [µM]	TGI (HOP-62 NSCLC) [µM]	GI50 (IGROV1 ovarian) [µM]	TGI (IGROV1 ovarian) [µM]	GI50 (PC-3 prostate) [µM]	TGI (PC-3 prostate) [µM]	GI50 (SF-268 CNS) [µM]	TGI (SF-268 CNS) [µM]	GI50 (SF-539 CNS) [µM]	TGI (SF-539 CNS) [µM]	GI50 (SK-OV-3 ovarian) [µM]	TGI (SK-OV-3 ovarian) [µM]	TGI (MALME-3M melanoma) [µM]	GI50 (MALME-3M melanoma) [µM]
Nc1nc(-n2c(-c3ccccc3)nc3c(Br)cc(Br)cc3c2=O)nnc1-c1cccc(Cl)c1Cl	7.41	> 100	19.1	> 100	17	> 100	2.84	9.8	12.9	45.9	26.6	> 100	20.3	> 100	7.8	40.4	27.2	> 100		
CCC[CH2][Sn]([CH2]CCC)([S]c1cccc2cccnc12)[S]c1cccc2cccnc12	0.348	1.34			0.123	0.342	0.355	2.79	0.224	0.53					0.234	0.617	0.324	1.18		
Cc1cc(N(CCC#N)CCC#N)ccc1N=Nc1ccc(S(N)(=O)=O)cc1		> 100				> 100		> 100		> 100				> 100		> 100		> 100	> 100	
CNC(=S)OCCC(C)CCCC(C)C (centres undefined)		32.5				31.7		34.1		31.7				30.7		30.6		41.6	36.8	
COc1ccc(CC2c3cc4c(cc3CCN2C)OCO4)c(C=O)c1OC (centres undefined)		> 100		> 100		> 100				> 100		> 100		> 100		> 100		> 100	> 100	
NC(=O)NO.O.O.O.O.O.O.O.O.O.O.O.[Ge].[Ge].[Ge].[Ge].[Ge].[O]=[Ge].[O]=[Ge].[O]=[Ge].[O]=[Ge].[O]=[Ge][OH]		> 100				> 100		> 100		> 100				> 100		> 100		> 100	> 100	
CCCCCCCCCCCC(=O)OCCOCCOCCOCCOCCOCc1ccccc1		> 100				> 100		> 100		> 100				> 100				> 100	> 100	
CCN(CC)CCSc1c2ccccc2nc2cc(NCC(=O)Nc3ccccc3-c3ccccc3NC(=O)CNc3ccc4c(SCCN(CC)CC)c5ccccc5nc4c3)ccc12		> 100				> 100		> 100		> 100				> 100		> 100		> 100	> 100	
O=C(CCc1nc(=S)[nH][nH]1)Nc1cc(Cl)c(Cl)cc1Cl		> 100				> 100		> 100		> 100				> 100		> 100		> 100	> 100	
Cc1c(C(=O)CC(=O)C(=O)Nc2ccccc2C(F)(F)F)[n+](=O)c2ccccc2n1[O-]		75.6				> 100		> 100		47.5				69		46.2		> 100	37.1	
C[N+](C)(C)CC(=O)N/N=C(/CC(=O)CC(C1=C(O)c2ccccc2OC1)c1ccccc1)C(=O)Nc1cccc(Cl)c1 (centres undefined)		> 100		> 100		> 100		> 100		> 100		> 100		> 100		> 100		> 100		
C=CCO[C@H]1CO[C@H]2[C@@H]1OC[C@@H]2Oc1ccc(Nc2ccnc(Nc3ccc(O[C@H]4CO[C@H]5[C@@H]4OC[C@@H]5OCC=C)c(Cl)c3)n2)cc1Cl	1.84	3.95	1.6	3.11	1.73	3.1	1.93	4.01	1.79	3.54			1.98	3.76	1.83	3.25	16.8	31.2	2.91	1.54
CO/C(=N\N=C\c1ccc(C(F)(F)F)cc1)c1ccncc1		> 10		> 10		> 10		> 10				> 10		> 10					> 10	
COc1ccccc1N1C(=O)C2c3[nH]c4ccccc4c3C3CCC(C(C)(C)C)CC3C2C1=O (centres undefined)		> 100						> 100		> 100				> 100		> 100		> 100	> 100	
Cc1ccc(S(=O)(=O)OC[C@@H]2CO2)cc1		> 100				> 100		> 100		> 100						> 100			> 100	
Nc1ccccc1S(=O)(=O)N(CC(=O)O)c1ccccc1		> 100				> 100				> 100				> 100		> 100		> 100	> 100	
NC1=NCCC1(c1ccccc1)c1ccccn1 (centres undefined)		> 100				> 100		> 100		> 100				> 100		> 100		> 100	> 100	
CCN1/C(=C\c2cc[n+](CC)c3ccccc23)C=Cc2ccccc21	0.215	18.1	0.0811	1.5	4.71	22.5			0.36	12.8	0.117	1.85	0.291	13.2	0.22	11	0.236	11.4	0.857	0.138
OCC1=CC(NC2CC(CO)C(O)C(O)C2O)C(O)C(O)C1O (centres undefined)		> 100						> 100		> 100						> 100		> 100	> 100	
COc1cc2c(c3oc4c(O)cccc4c(=O)c13)CC(C(C)(O)CO)O2 (centres undefined)		> 100		> 100		> 100		> 100		> 100		> 100		> 100		> 100			> 100	
CCOC(=O)CCC1(C(=O)OCC)CCCCC1=O (centres undefined)		> 100						> 100		> 100				> 100		> 100		> 100	> 100	
CN(C)N=Nc1ccc(C(N)=O)cc1		> 100				> 100		> 100		> 100				> 100		> 100		> 100	> 100	
